Key:
[1] = biological target: Beta-2 adrenergic receptor (Homo sapiens) (UniProt P07550); conditions: Compound concentration 10.0 uM
[2] = GPCRScan assay: inhibition of GABA/PBR; set-up: species or system Rattus norvegicus; radioligand conc. used [nm] 0.3 – 2.0, parental cells brain tissue
[3] = biological target: 5-hydroxytryptamine receptor 2A (Homo sapiens) (UniProt P28223); conditions: Compound concentration 10.0 uM
Rattus norvegicus [4] = species on record: Rattus norvegicus; assay: Inhibition of Imidazoline I2, Central at 10 µM in the Eurofins-Panlabs radioligand binding assay (Eurofins_assay_241000); set-up: ligand concentration 2 nM; conditions: Compound concentration 10.0 uM
[5] = biological target: Mitogen-activated protein kinase 4 (Homo sapiens, UniProt P31152); assay: ERK4(MAP4LGY1) Takeda global kinase panel
[6] = biological target: D(1A) dopamine receptor (Homo sapiens) (UniProt P21728); conditions: Compound concentration 10.0 uM
[7] = biological target: Platelet-activating factor receptor (Homo sapiens) (UniProt P25105); assay: Platelet Activating Factor (PAF) Eurofins-Panlabs radioligand binding assay; set-up: ligand concentration 1 nM; conditions: Compound concentration 10.0 uM
[8] = biological target: Alpha-2C adrenergic receptor (Homo sapiens) (UniProt P18825); conditions: Compound concentration 10.0 uM
[9] = biological target: Sigma non-opioid intracellular receptor 1 (Homo sapiens) (UniProt Q99720); conditions: Compound concentration 10.0 uM
Rattus norvegicus [10] = species on record: Rattus norvegicus; conditions: Compound concentration 10.0 uM
[11] = biological target: Endothelin-1 receptor (Homo sapiens) (UniProt P25101); conditions: Compound concentration 10.0 uM
[12] = biological target: Sigma intracellular receptor 2 (Homo sapiens) (UniProt Q5BJF2); conditions: Compound concentration 10.0 uM
Oryctolagus cuniculus = species on record: Oryctolagus cuniculus; conditions: Compound concentration 10.0 uM
[13] = biological target: D(1B) dopamine receptor (Homo sapiens) (UniProt P21918); conditions: Compound concentration 10.0 uM
[14] = biological target: T1, Muscarinic acetylcholine receptor M1 (Homo sapiens) (UniProt P11229); conditions: Compound concentration 10.0 uM
T1 sequence (whole entry): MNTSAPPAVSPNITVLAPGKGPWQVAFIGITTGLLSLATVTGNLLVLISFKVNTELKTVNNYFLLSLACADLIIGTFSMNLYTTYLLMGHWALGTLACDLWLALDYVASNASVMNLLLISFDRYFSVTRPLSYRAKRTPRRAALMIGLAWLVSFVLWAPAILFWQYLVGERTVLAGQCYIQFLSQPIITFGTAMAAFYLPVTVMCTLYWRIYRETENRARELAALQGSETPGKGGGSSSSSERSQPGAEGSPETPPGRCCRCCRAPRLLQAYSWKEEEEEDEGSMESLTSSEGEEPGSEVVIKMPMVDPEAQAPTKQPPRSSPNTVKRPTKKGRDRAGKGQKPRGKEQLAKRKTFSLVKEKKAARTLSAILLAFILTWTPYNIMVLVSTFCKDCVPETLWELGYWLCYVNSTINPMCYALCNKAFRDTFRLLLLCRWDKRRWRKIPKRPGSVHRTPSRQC

[15] = biological target: STE20/SPS1-related proline-alanine-rich protein kinase (Homo sapiens, UniProt Q9UEW8); assay: STLK3(ST39LGRJ) Takeda global kinase panel
[16] = biological target: 5-hydroxytryptamine receptor 2C (Homo sapiens) (UniProt P28335); conditions: Compound concentration 10.0 uM
[17] = biological target: Calcium/calmodulin-dependent protein kinase type II subunit gamma (Homo sapiens, UniProt Q13555); assay: CaMK2gamma(CA2GLGT5) Takeda global kinase panel
[18] = biological target: Dual specificity mitogen-activated protein kinase kinase 7 (Homo sapiens, UniProt O14733); assay: MAP2K7(M2K7CGRI) Takeda global kinase panel
[19] = biological target: Serine/threonine-protein kinase Sgk1 (Homo sapiens, UniProt O00141); assay: SGK1(SGK1LGF1) Takeda global kinase panel
[20] = biological target: Proto-oncogene tyrosine-protein kinase Src (Homo sapiens, UniProt P12931); assay: Src(SRC1LGF5) Takeda global kinase panel
[21] = biological target: Testis-specific serine/threonine-protein kinase 3 (Homo sapiens, UniProt Q96PN8); assay: TSSK3(TSS3LGRM) Takeda global kinase panel
[22] = biological target: Serine/threonine-protein kinase 38-like (Homo sapiens, UniProt Q9Y2H1); assay: NDR2(S38LLGF1) Takeda global kinase panel
[23] = biological target: Serine/threonine-protein kinase TAO1 (Homo sapiens, UniProt Q7L7X3); assay: TAO1(TAO1LGF1) Takeda global kinase panel
[24] = biological target: MAP kinase-activated protein kinase 5 (Homo sapiens, UniProt Q8IW41); assay: MAPKAPK5(MPK5LGN1) Takeda global kinase panel
[25] = biological target: Glycogen synthase kinase-3 alpha (Homo sapiens, UniProt P49840); assay: GSK3alpha(GS3ALGK1) Takeda global kinase panel
Activin receptor type-1B = Activin receptor type-1B (Homo sapiens, UniProt P36896); assay: ALK4(AC1BLGF1) Takeda global kinase panel
Ephrin type-A receptor 2 = Ephrin type-A receptor 2 (Homo sapiens, UniProt P29317); assay: EphA2(EPA2LGY1) Takeda global kinase panel
[26] = biological target: Protein kinase C gamma type (Homo sapiens, UniProt P05129); assay: PKCgamma(PRKGLGP1) Takeda global kinase panel
[27] = biological target: L-type calcium channel, benzothiazepine site (Cav1.2 alpha-1C) (Homo sapiens, UniProt Q13936); assay: Inhibition of Calcium Channel L-Type, Benzothiazepine at 10 µM in the Eurofins-Panlabs radioligand binding assay (Eurofins_assay_214510); set-up: ligand concentration 2 nM, non-specific ligand with concentration 10 µM Diltiazem, incubation time 3h, incubation temperature 4 °C; conditions: male, Wistar, rat, whole brain of rats, probe [3H] Diltiazem; compound concentration 10 uM; target entry is the homologue from another species
[28] = biological target: Receptor-interacting serine/threonine-protein kinase 4 (Homo sapiens, UniProt P57078); assay: ANKRD3(RIP4LGN1) Takeda global kinase panel
[29] = biological target: Inhibitor of nuclear factor kappa-B kinase subunit epsilon (Homo sapiens, UniProt Q14164); assay: IKKepsilon(IKBELGY1) Takeda global kinase panel
[30] = biological target: Tyrosine-protein kinase Fyn (Homo sapiens, UniProt P06241); assay: Fyn(FYN1LGF5) Takeda global kinase panel
[31] = biological target: Homeodomain-interacting protein kinase 3 (Homo sapiens, UniProt Q9H422); assay: HIPK3(HIP3LGF1) Takeda global kinase panel
[32] = biological target: Mitogen-activated protein kinase kinase kinase 2 (Homo sapiens, UniProt Q9Y2U5); assay: MEKK2 [MAP3K2(M3K2LGF1)] Takeda global kinase panel
[33] = biological target: RAC-alpha serine/threonine-protein kinase (Homo sapiens, UniProt P31749); assay: Akt1 [PKBalpha(AKT1PHFB)] Takeda global kinase panel
Chain of RAC-alpha serine/threonine-protein kinase (P31749 whole entry): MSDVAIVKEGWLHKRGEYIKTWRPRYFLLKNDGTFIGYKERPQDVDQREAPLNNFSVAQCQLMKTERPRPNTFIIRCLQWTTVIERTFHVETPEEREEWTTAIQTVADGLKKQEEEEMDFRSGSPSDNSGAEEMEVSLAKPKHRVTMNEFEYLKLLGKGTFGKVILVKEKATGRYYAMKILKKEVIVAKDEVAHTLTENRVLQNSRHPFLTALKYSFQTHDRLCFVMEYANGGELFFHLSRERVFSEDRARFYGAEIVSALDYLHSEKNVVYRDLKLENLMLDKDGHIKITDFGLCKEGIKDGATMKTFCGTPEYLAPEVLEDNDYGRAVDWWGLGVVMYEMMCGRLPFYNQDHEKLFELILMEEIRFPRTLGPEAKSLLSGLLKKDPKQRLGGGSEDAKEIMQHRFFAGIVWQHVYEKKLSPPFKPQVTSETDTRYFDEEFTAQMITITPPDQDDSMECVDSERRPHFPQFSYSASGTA

Chain of Endothelin-1 receptor (Homo sapiens) (P25101 whole entry): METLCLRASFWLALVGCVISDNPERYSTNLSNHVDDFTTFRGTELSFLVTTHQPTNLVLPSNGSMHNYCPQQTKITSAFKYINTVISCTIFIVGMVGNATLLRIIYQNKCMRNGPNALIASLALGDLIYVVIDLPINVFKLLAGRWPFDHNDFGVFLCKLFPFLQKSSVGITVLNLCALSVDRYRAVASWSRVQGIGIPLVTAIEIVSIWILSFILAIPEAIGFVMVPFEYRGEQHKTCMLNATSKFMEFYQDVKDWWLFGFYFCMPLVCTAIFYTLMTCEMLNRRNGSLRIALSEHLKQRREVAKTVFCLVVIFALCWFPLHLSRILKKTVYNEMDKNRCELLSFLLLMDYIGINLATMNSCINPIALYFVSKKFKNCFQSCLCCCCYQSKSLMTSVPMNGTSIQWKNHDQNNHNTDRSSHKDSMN
Chain of 5-hydroxytryptamine receptor 2A (Homo sapiens) (P28223 whole entry): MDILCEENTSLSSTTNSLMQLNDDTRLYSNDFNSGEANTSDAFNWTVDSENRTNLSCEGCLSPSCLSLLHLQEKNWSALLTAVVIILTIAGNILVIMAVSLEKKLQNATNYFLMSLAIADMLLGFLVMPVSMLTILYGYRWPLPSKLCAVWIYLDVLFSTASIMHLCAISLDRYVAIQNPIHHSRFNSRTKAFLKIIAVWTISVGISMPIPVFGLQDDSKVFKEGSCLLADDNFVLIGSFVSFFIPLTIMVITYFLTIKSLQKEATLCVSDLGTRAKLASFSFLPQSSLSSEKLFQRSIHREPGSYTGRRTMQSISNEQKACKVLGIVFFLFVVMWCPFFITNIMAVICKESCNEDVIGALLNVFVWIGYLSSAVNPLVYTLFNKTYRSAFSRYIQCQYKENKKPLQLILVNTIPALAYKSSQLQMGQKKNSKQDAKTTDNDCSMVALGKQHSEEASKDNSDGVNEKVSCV
Chain of Sigma intracellular receptor 2 (Homo sapiens) (Q5BJF2 whole entry): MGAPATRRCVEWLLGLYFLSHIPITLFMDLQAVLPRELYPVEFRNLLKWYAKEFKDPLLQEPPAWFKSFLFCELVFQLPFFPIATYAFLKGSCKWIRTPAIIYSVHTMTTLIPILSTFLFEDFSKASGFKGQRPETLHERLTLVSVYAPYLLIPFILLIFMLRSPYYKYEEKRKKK
Chain of Serine/threonine-protein kinase TAO1 (Q7L7X3 whole entry): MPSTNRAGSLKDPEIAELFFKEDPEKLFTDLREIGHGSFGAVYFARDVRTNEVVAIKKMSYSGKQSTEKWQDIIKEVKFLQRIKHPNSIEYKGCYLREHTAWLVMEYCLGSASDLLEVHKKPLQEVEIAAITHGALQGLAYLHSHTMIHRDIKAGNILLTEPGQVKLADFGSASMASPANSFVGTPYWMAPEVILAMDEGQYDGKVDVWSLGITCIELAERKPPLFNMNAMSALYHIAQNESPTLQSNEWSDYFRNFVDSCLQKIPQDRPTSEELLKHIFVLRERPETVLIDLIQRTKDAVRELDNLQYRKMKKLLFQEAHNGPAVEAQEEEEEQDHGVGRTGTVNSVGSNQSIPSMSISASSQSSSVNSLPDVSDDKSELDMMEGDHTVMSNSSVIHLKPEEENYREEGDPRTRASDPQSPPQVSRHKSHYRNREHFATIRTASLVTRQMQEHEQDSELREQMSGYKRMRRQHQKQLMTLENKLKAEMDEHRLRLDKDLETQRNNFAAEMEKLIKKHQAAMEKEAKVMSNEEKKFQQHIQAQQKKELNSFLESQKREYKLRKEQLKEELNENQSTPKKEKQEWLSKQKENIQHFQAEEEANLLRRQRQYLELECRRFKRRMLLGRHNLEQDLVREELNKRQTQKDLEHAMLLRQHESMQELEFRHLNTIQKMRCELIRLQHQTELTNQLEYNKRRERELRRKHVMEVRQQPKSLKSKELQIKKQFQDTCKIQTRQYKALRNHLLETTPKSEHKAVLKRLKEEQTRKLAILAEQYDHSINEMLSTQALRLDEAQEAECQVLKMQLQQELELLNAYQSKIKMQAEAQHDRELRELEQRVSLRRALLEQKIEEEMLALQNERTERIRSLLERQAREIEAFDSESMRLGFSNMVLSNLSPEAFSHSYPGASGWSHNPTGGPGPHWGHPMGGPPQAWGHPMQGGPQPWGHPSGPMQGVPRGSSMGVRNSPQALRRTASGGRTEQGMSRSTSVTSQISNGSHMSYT
Chain of Mitogen-activated protein kinase kinase kinase 2 (Q9Y2U5 whole entry): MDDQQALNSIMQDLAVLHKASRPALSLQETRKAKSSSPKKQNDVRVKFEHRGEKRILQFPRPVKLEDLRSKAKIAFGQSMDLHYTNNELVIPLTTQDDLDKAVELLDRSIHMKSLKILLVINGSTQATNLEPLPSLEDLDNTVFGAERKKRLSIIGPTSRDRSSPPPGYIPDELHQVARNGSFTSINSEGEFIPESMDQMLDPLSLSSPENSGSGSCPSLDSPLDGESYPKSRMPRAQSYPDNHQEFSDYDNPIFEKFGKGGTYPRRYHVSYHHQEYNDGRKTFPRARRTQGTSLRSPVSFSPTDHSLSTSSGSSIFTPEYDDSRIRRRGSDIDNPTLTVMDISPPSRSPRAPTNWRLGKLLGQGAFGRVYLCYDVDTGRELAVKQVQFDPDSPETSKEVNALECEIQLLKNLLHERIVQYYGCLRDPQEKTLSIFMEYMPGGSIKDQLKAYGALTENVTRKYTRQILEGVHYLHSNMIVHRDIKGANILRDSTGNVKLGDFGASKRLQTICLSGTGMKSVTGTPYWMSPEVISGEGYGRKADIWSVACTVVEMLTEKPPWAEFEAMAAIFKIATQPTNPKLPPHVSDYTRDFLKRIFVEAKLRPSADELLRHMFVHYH
Chain of Platelet-activating factor receptor (Homo sapiens) (P25105 whole entry): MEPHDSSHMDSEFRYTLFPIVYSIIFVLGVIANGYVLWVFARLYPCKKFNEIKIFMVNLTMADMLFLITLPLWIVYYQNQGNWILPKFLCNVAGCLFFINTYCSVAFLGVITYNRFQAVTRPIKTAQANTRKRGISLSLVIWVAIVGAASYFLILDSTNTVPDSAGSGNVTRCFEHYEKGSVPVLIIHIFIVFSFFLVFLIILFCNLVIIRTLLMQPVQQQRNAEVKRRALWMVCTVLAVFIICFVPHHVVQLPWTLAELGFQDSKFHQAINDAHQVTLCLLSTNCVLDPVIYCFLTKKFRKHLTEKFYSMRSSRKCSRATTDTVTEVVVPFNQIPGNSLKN
Chain of 5-hydroxytryptamine receptor 2C (Homo sapiens) (P28335 whole entry): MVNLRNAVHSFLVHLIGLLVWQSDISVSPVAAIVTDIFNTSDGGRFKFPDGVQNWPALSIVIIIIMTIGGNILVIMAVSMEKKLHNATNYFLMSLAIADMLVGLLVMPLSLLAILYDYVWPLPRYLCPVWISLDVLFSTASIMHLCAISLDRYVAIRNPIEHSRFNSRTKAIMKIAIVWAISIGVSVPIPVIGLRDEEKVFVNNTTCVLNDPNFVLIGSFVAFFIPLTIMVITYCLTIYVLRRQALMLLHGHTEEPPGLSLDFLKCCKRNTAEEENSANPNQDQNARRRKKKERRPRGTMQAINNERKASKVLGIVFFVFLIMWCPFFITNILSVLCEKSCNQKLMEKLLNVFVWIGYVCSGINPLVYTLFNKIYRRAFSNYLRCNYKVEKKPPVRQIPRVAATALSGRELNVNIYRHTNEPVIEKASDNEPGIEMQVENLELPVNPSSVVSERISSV
Chain of Sigma non-opioid intracellular receptor 1 (Homo sapiens) (Q99720 whole entry): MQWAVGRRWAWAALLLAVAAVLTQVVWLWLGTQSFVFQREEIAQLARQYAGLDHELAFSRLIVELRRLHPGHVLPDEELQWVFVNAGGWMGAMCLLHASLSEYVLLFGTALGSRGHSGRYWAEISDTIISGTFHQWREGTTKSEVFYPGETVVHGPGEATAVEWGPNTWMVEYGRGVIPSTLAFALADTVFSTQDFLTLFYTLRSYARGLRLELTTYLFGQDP

## CN1C(=O)[C@@H](N2CCc3cn(Cc4ccccc4)nc3C2=O)COc2ccccc21 [TP-030-1]
[1]
  inhibition: 9.59%
[2]
  Ki: 375 nM
  pKi: 6.425
[3]
  inhibition: 3.8%
Rattus norvegicus [4]
  inhibition: 6%
[5]
  IC50: 1000 nM
[6]
  inhibition: 18.8%
[7]
  inhibition: 2%
[8]
  inhibition: 34.7%
[9]
  inhibition: -1.9%
Rattus norvegicus [10]
  inhibition: -7%
[11]
  inhibition: -5%
[12]
  inhibition: 27%
Oryctolagus cuniculus
  inhibition: -6%
[13]
  inhibition: 1.77%
[14]
  inhibition: 0.6%
[15]
  IC50: 1000 nM
[16]
  inhibition: -2.89%

## CN1C(=O)[C@@H](N2CCc3cn(CC4CCS(=O)(=O)CC4)nc3C2=O)COc2ccccc21 [TP-030n]
[17]
  IC50: 1000 nM
[18]
  IC50: 1000 nM
[19]
  IC50: 1000 nM
[20]
  IC50: 1000 nM
[21]
  IC50: 1000 nM
[22]
  IC50: 1000 nM
[23]
  IC50: 1000 nM
[24]
  IC50: 1000 nM
[25]
  IC50: 1000 nM
Activin receptor type-1B
  IC50: 1000 nM
Ephrin type-A receptor 2
  IC50: 1000 nM
[26]
  IC50: 1000 nM
[27]
  inhibition at 3 h, 10 µM: 2% (not active)
[28]
  IC50: 1000 nM
[29]
  IC50: 1000 nM
[30]
  IC50: 1000 nM
[31]
  IC50: 1000 nM
[32]
  IC50: 1000 nM
[33]
  IC50: 1000 nM

— ChEMBL document CHEMBL4507327 (2021)
